“Also recorded” adds a separate entry of the source.
What was measured:
[1] = cited from earlier work
[2] = system: Japanese quail testis (gonadal growth); experiment: intracerebroventricular infusion by osmotic mini pump, testicular growth under short-day condition; type: in vivo, Japanese quail (Coturnix coturnix japonica); details: for testicular growth: i.c.v. infusion to third ventricle, several doses, short-day condition (light 8 hrs, dark 16 hrs), male Japanese quail
Procedure: (§1) To assess directly whether T3 mediates photoperiodic response of gonads, the inventors studied the effect of intracerebroventricular (i.c.v.) infusion of T3 on gonadal growth. Vehicle and several doses of T3 and T4 were infused to third ventricle by osmotic mini pump and testicular size was measured before and after the infusion. […] Therefore, the inventors furthermore examined the effect of IOP infusion under long-day condition (FIG. 10b).

[3] = system: Japanese quail gonadotropin release and gonadal growth; details: cited from earlier work; for photoperiodically induced gonadotropin secretion and gonadal growth: peripheral injection of pharmacological dose
[4] = system: Japanese quail testis (gonadal growth); experiment: IOP infusion, testicular growth under long-day condition; type: in vivo, Japanese quail (Coturnix coturnix japonica); details: long-day condition (p<0.05)
Procedure: as §1

N[C@@H](Cc1cc(I)c(Oc2cc(I)c(O)c(I)c2)c(I)c1)C(=O)O [T4, Thyroxine]
fraction of T4 converted to T3 in the blood [1]: about ⅓ | fraction of T4 converted to reverse T3 (RT3) in the blood [1]: ~45% | testicular growth [2]: little effect | photoperiodically induced gonadotropin secretion and gonadal growth [3]: can mimic | relative effectiveness to mimic gonadotropin release ([3]; peripheral injection): more effective than T3

CCC(Cc1c(I)cc(I)c(N)c1I)C(=O)O (stereo not shown) [IOP, lopanoic acid]
testicular growth [4]: can reduce testicular growth; also recorded: reduces testicular growth

N[C@@H](Cc1cc(I)c(Oc2ccc(O)c(I)c2)c(I)c1)C(=O)O [T3, 3,5,3′-triiodothyronine]
testicular growth [2]: mimics testicular growth with dose dependent manner | testicular growth at the largest dose ([2]; i.c.v. infusion, largest dose, short-day condition): testicular growth was not observed | dose giving the greatest effect ([2]; intracerebroventricular administration to Japanese quail): 0.3 ng per day | photoperiodically induced gonadotropin secretion and gonadal growth [3]: can mimic

From patent US20040242525A1, “Method for promoting gonadal growth in an animal” (Nagoya University, priority 2003, published 2004)
